{"source": "PubChem BioAssay (NCI)", "assay_in_all_cases": "inhibition of tumour cell growth, NCI panel, 48 h", "key": {"TK-10 renal": {"tested_on": "TK-10 renal"}, "CCRF-CEM leukemia": {"tested_on": "CCRF-CEM leukemia"}, "OVCAR-4 ovarian": {"tested_on": "OVCAR-4 ovarian"}, "LOX IMVI melanoma": {"tested_on": "LOX IMVI melanoma"}, "U251 CNS": {"tested_on": "U251 CNS"}, "T-47D breast": {"tested_on": "T-47D breast"}, "MOLT-4 leukemia": {"tested_on": "MOLT-4 leukemia"}, "K-562 leukemia": {"tested_on": "K-562 leukemia"}, "HL-60(TB) leukemia": {"tested_on": "HL-60(TB) leukemia"}, "UACC-257 melanoma": {"tested_on": "UACC-257 melanoma"}, "MDA-MB-231 breast": {"tested_on": "MDA-MB-231 breast"}, "SF-539 CNS": {"tested_on": "SF-539 CNS"}, "OVCAR-5 ovarian": {"tested_on": "OVCAR-5 ovarian"}, "HOP-62 NSCLC": {"tested_on": "HOP-62 NSCLC"}, "NCI-H23 lung": {"tested_on": "NCI-H23 lung"}, "RPMI-8226 leukemia": {"tested_on": "RPMI-8226 leukemia"}, "RXF 393 renal": {"tested_on": "RXF 393 renal"}, "SNB-19 CNS": {"tested_on": "SNB-19 CNS"}, "OVCAR-8 ovarian": {"tested_on": "OVCAR-8 ovarian"}, "SK-MEL-28 melanoma": {"tested_on": "SK-MEL-28 melanoma"}, "OVCAR-3 ovarian": {"tested_on": "OVCAR-3 ovarian"}, "PC-3 prostate": {"tested_on": "PC-3 prostate"}, "IGROV1 ovarian": {"tested_on": "IGROV1 ovarian"}, "SR leukemia": {"tested_on": "SR leukemia"}, "DU-145 prostate": {"tested_on": "DU-145 prostate"}, "MCF7 breast": {"tested_on": "MCF7 breast"}, "HS 578T breast": {"tested_on": "HS 578T breast"}, "EKVX NSCLC": {"tested_on": "EKVX NSCLC"}, "SN12C renal": {"tested_on": "SN12C renal"}, "SNB-75 CNS": {"tested_on": "SNB-75 CNS"}}, "note": "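Step 1: Grow cells in 96-well plates. Step 2: Expose to compound for 48 hours at 5 concentrations. Step 3: Interpolate endpoints linearly; if unreached, use highest concentration. GI50 is the concentration that inhibits growth by half. TGI denotes the concentration required for complete inhibition of growth.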", "data": [{"compound": "COc1ccc(-c2nc(S(=O)(=O)c3ccc(C)cc3)c(S(=O)(=O)CC(=O)N(C)Cc3ccccc3)o2)cc1", "values": [{"measurement": "GI50", "setting": "TK-10 renal", "value": 13.2, "unit": "µM"}, {"measurement": "TGI", "setting": "TK-10 renal", "value": 26.5, "unit": "µM"}, {"measurement": "GI50", "setting": "CCRF-CEM leukemia", "value": 3.5, "unit": "µM"}, {"measurement": "TGI", "setting": "CCRF-CEM leukemia", "value": "> 100", "unit": "µM"}, {"measurement": "GI50", "setting": "OVCAR-4 ovarian", "value": 14.2, "unit": "µM"}, {"measurement": "TGI", "setting": "OVCAR-4 ovarian", "value": 36.7, "unit": "µM"}, {"measurement": "GI50", "setting": "LOX IMVI melanoma", "value": 2.79, "unit": "µM"}, {"measurement": "TGI", "setting": "LOX IMVI melanoma", "value": 10.2, "unit": "µM"}, {"measurement": "GI50", "setting": "U251 CNS", "value": 15.4, "unit": "µM"}, {"measurement": "TGI", "setting": "U251 CNS", "value": 29.1, "unit": "µM"}, {"measurement": "GI50", "setting": "T-47D breast", "value": 6.28, "unit": "µM"}, {"measurement": "TGI", "setting": "T-47D breast", "value": 25.2, "unit": "µM"}, {"measurement": "GI50", "setting": "MOLT-4 leukemia", "value": 4.73, "unit": "µM"}, {"measurement": "TGI", "setting": "MOLT-4 leukemia", "value": "> 100", "unit": "µM"}, {"measurement": "GI50", "setting": "K-562 leukemia", "value": 4.72, "unit": "µM"}, {"measurement": "TGI", "setting": "K-562 leukemia", "value": "> 100", "unit": "µM"}, {"measurement": "GI50", "setting": "HL-60(TB) leukemia", "value": 16.3, "unit": "µM"}, {"measurement": "TGI", "setting": "HL-60(TB) leukemia", "value": "> 100", "unit": "µM"}, {"measurement": "GI50", "setting": "UACC-257 melanoma", "value": 13.1, "unit": "µM"}, {"measurement": "TGI", "setting": "UACC-257 melanoma", "value": 26.3, "unit": "µM"}, {"measurement": "GI50", "setting": "MDA-MB-231 breast", "value": 9.27, "unit": "µM"}, {"measurement": "TGI", "setting": "MDA-MB-231 breast", "value": 21.6, "unit": "µM"}, {"measurement": "GI50", "setting": "SF-539 CNS", "value": 10.7, "unit": "µM"}, {"measurement": "TGI", "setting": "SF-539 CNS", "value": 22.5, "unit": "µM"}, {"measurement": "GI50", "setting": "OVCAR-5 ovarian", "value": 12.8, "unit": "µM"}, {"measurement": "TGI", "setting": "OVCAR-5 ovarian", "value": 25.5, "unit": "µM"}, {"measurement": "GI50", "setting": "HOP-62 NSCLC", "value": 16, "unit": "µM"}, {"measurement": "TGI", "setting": "HOP-62 NSCLC", "value": 32.5, "unit": "µM"}, {"measurement": "GI50", "setting": "NCI-H23 lung", "value": 12.5, "unit": "µM"}, {"measurement": "TGI", "setting": "NCI-H23 lung", "value": 25.7, "unit": "µM"}, {"measurement": "GI50", "setting": "RPMI-8226 leukemia", "value": 4.45, "unit": "µM"}, {"measurement": "TGI", "setting": "RPMI-8226 leukemia", "value": "> 100", "unit": "µM"}, {"measurement": "GI50", "setting": "RXF 393 renal", "value": 5.05, "unit": "µM"}, {"measurement": "TGI", "setting": "RXF 393 renal", "value": 16.9, "unit": "µM"}, {"measurement": "GI50", "setting": "SNB-19 CNS", "value": 14.4, "unit": "µM"}, {"measurement": "TGI", "setting": "SNB-19 CNS", "value": 27.5, "unit": "µM"}, {"measurement": "GI50", "setting": "OVCAR-8 ovarian", "value": 13.3, "unit": "µM"}, {"measurement": "TGI", "setting": "OVCAR-8 ovarian", "value": 28.9, "unit": "µM"}, {"measurement": "GI50", "setting": "SK-MEL-28 melanoma", "value": 14.3, "unit": "µM"}, {"measurement": "TGI", "setting": "SK-MEL-28 melanoma", "value": 27.3, "unit": "µM"}, {"measurement": "GI50", "setting": "OVCAR-3 ovarian", "value": 4.25, "unit": "µM"}, {"measurement": "TGI", "setting": "OVCAR-3 ovarian", "value": 16.2, "unit": "µM"}, {"measurement": "GI50", "setting": "PC-3 prostate", "value": 12.1, "unit": "µM"}, {"measurement": "TGI", "setting": "PC-3 prostate", "value": 44.9, "unit": "µM"}, {"measurement": "GI50", "setting": "IGROV1 ovarian", "value": 11.1, "unit": "µM"}, {"measurement": "TGI", "setting": "IGROV1 ovarian", "value": 23.5, "unit": "µM"}, {"measurement": "GI50", "setting": "SR leukemia", "value": 3.27, "unit": "µM"}, {"measurement": "TGI", "setting": "SR leukemia", "value": "> 100", "unit": "µM"}, {"measurement": "GI50", "setting": "DU-145 prostate", "value": 10.2, "unit": "µM"}, {"measurement": "TGI", "setting": "DU-145 prostate", "value": 21.8, "unit": "µM"}, {"measurement": "GI50", "setting": "MCF7 breast", "value": 3.89, "unit": "µM"}, {"measurement": "TGI", "setting": "MCF7 breast", "value": 16.8, "unit": "µM"}, {"measurement": "GI50", "setting": "HS 578T breast", "value": 4.85, "unit": "µM"}, {"measurement": "TGI", "setting": "HS 578T breast", "value": 33.5, "unit": "µM"}, {"measurement": "GI50", "setting": "EKVX NSCLC", "value": 11.7, "unit": "µM"}, {"measurement": "TGI", "setting": "EKVX NSCLC", "value": 25.2, "unit": "µM"}, {"measurement": "GI50", "setting": "SN12C renal", "value": 10.5, "unit": "µM"}, {"measurement": "TGI", "setting": "SN12C renal", "value": 22.3, "unit": "µM"}, {"measurement": "GI50", "setting": "SNB-75 CNS", "value": 4.82, "unit": "µM"}]}]}
